Measured values taken from patent EP4813993A1, “COMPOUND, PREPARATION METHOD THEREFOR, AND USE THEREOF” (Sichuan Kelun Pharmaceutical Research Institute Co., Ltd., priority 2023, dated 2025).

These compounds were tested against T1, Nav1.8 channels (Homo sapiens, UniProt Q9Y5Y9) (assay: Manual patch-clamp, current of stably overexpressed Nav1.8 channels (resting state voltage program)). Conditions: not given.
T1 construct: expressed in transfected cells
Assay type: cell-based
Protocol: Experimental Example 1: Effects of test substances on current of stably overexpressed Nav1.8 channels monitored via manual patch-clamp technique
Test compounds were dissolved in dimethyl sulfoxide (DMSO).
The extracellular fluid was as follows: 140 mM NaCl, 3.5 mM KCl, 1 mM MgCl2•6H2O, 2 mM CaCl2•2H2O, 10 mM D-Glucose, 10 mM HEPES, 1.25 mM NaH2PO4•2H2O; the pH was adjusted to 7.4 with NaOH. The intracellular fluid was as follows: 50 mM CsCl, 10 mM NaCl, 10 mM HEPES, 60 mM CsF, 20 mM EGTA; the pH was adjusted to 7.2 with CsOH.
2. Experimental materials and instruments
• 1) patch-clamp amplifier: EPC 10 (HEKA) • 2) micromanipulator: MP225 (Sutter Instrument) • 3) inverted microscope: MF53 (Mshot) • 4) micropipette puller: P97 (Sutter Instrument) • 5) capillary glass tube: BF150-86-10 (Sutter Instrument)
3. Experimental procedures
• 1) After the compounds were prepared into solutions with specified concentrations, the solutions were sequentially added to the pipeline of the drug delivery system and labeled. • 2) The cell climbing coverslip was placed in the recording chamber, the appropriate cells were selected under the inverted microscope, and the position of the drug delivery tip was adjusted. • 3) A capillary glass tube was pulled into a suitable recording electrode using the micropipette puller, and then the electrode filled with the intracellular fluid was mounted in the microelectrode holder. The micromanipulator was adjusted under the inverted microscope to allow the recording electrode to contact the cell, and negative pressure was applied to the electrode to form a high-resistance seal. At this time, fast capacitance compensation was performed, and then the application of negative pressure was continued to break the cell membrane, forming a whole-cell recording mode. Finally, slow capacitance compensation was performed, and related parameters were recorded. • 4) After the cell current stabilized, administration was started. Each concentration of the drug was applied for five minutes or until the current stabilized before proceeding to monitor the next concentration. The drug solutions were administered via gravity-fed delivery, flowing through the recording chamber to act on the cells in an ascending order of concentration (from low to high). A peristaltic pump was employed for solution exchange in the recording process.
4 Test voltage program (resting state) and results
After the formation of the whole-cell seal, the cell voltage was clamped at -120 mV, followed by depolarization to 0 mV using a square-wave pulse with a duration of 50 ms to elicit Nav1.8 currents. This procedure was repeated every 20 s to monitor the maximum current induced by the square wave. After the current stabilized, the test compounds were administered. Once the response stabilized, the intensity of the current block was calculated.

T1 sequence (Q9Y5Y9 whole entry): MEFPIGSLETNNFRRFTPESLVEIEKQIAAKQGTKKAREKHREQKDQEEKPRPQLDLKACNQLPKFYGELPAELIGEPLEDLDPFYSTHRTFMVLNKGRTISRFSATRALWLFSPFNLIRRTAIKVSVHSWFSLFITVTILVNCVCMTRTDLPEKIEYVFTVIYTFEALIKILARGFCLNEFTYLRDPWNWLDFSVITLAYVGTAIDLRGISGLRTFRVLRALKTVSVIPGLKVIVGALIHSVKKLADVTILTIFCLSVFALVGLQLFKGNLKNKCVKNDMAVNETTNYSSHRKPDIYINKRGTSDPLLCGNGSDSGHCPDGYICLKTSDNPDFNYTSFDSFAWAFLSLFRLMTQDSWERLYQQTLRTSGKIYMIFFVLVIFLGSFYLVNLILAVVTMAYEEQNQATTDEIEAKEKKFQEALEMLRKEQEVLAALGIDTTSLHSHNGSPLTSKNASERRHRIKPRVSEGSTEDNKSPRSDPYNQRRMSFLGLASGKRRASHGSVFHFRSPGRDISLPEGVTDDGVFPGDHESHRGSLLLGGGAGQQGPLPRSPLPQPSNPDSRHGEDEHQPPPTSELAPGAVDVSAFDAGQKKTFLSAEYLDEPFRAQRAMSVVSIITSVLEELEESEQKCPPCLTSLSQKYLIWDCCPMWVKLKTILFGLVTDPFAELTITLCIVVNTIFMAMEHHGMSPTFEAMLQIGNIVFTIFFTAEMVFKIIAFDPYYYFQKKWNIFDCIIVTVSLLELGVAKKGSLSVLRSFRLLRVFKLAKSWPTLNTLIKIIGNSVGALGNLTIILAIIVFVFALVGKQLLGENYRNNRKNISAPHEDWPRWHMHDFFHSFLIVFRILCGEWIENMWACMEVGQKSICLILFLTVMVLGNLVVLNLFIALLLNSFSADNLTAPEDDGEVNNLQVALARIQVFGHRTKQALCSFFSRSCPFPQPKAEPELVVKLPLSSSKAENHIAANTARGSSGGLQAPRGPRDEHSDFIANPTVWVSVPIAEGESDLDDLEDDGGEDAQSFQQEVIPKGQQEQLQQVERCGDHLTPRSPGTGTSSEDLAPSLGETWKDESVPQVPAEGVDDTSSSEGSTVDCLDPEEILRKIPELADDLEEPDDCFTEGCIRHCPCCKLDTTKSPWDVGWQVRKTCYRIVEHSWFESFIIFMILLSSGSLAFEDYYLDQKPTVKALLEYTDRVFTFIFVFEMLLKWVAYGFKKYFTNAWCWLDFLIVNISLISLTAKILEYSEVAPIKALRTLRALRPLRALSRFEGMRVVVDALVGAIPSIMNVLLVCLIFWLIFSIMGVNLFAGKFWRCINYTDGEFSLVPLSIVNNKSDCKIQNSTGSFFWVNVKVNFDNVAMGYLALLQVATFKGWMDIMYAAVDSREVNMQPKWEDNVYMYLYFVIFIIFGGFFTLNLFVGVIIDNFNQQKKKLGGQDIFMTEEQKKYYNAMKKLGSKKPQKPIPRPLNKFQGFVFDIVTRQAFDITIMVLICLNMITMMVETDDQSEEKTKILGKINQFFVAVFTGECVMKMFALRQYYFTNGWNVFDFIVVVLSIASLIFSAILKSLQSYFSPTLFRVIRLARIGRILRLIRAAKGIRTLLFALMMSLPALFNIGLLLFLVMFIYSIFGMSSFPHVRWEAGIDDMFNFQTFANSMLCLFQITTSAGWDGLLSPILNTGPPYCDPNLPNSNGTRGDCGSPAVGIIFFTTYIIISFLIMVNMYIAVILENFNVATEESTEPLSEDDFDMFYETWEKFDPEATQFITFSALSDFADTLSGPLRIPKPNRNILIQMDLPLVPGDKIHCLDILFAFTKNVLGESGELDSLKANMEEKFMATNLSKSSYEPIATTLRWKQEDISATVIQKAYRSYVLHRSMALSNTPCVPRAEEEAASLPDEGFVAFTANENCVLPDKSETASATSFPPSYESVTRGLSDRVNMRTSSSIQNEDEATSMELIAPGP

IC50 | SMILES
0.33 nM | COc1c(C2CC(C)(C(F)(F)F)SC2C(=O)Nc2ccc(F)c(B(O)O)c2)ccc(F)c1F (stereo not drawn) [Compound 19, (5-(3-(3,4-difluoro-2-methoxyphenyl)-5-methyl-5-(trifluoromethyl)tetrahydrothiophene-2-carboxamido)-2-fluorophenyl)boronic acid]

Same assay, conditions: concentration of 1 nM, read-out: Inhibition rate %

SMILES | inhibition at 0.001 µM
COc1c(C2C(C(=O)Nc3ccnc(C(N)=O)c3)SC(C)(C(F)(F)F)C2C)ccc(F)c1F (stereo not drawn) [Compound 136, 4-(3-(3,4-difluoro-2-methoxyphenyl)-4,5-dimethyl-5-(trifluoromethyl)tetrahydrothiophene-2-carboxamido)picolinamide] | 61.9%
COc1c(C2CC(C)(C(F)(F)F)SC2C(=O)Nc2ccnc(N)c2)ccc(F)c1F (stereo not drawn) [Compound 175, (4-(3-(3,4-difluoro-2-methoxyphenyl)-5-methyl-5-(trifluoromethyl)tetrahydrothiophene-2-carboxamido)-2-amino)pyridine] | 87.8%

Same assay, conditions: concentration of 10 nM, 0.01 µM

Inhibition rate (%) | SMILES
87.78% | COc1c(C2CC(C)(C)SC2C(=O)Nc2ccnc(C(N)=O)c2)ccc(F)c1F (stereo not drawn) [Compound 134-A, 4-(3-(3,4-difluoro-2-methoxyphenyl)-5,5-dimethyltetrahydrothiophene-2-carboxamido)picolinamide]

Same assay, conditions: concentration of 10 nM, read-out: Inhibition rate %

inhibition at 0.01 µM | SMILES
84.9% | COc1c(C2CC(C)(C(F)(F)F)SC2C(=O)Nc2cccc(B(O)O)c2)ccc(F)c1F (stereo not drawn) [Compound 9, (3-(3-(3,4-difluoro-2-methoxyphenyl)-5-methyl-5-(trifluoromethyl)tetrahydrothiophene-2-carboxamido)phenyl)boronic acid]
87.5% | [2H][C@@]1(C(=O)Nc2cccc(B(O)O)c2)S[C@@](C)(C(F)(F)F)C[C@H]1c1ccc(F)c(F)c1OC [Compound 10-A]
87.9% | [2H]C1(C(=O)Nc2ccc(F)c(B(O)O)c2)SC(C)(C(F)(F)F)CC1c1ccc(F)c(F)c1OC (stereo not drawn) [Compound 20-A, (5-(3-(3,4-difluoro-2-methoxyphenyl)-5-methyl-5-(trifluoromethyl)tetrahydrothiophene-2-carboxamido-2-d)-2-fluorophenyl)boronic acid]
65% | COc1c(C2CC(C)(C(F)(F)F)SC2C(=O)Nc2ccc3c(c2)B(O)OC3)ccc(F)c1F (stereo not drawn) [Compound 31, 3-(3,4-difluoro-2-methoxyphenyl)-N-(1-hydroxy-1,3-dihydrobenzo[c][1,2]oxaborol-6-yl)-5-methyl-5-(trifluoromethyl)tetrahydrothiophene-2-carboxamide]
84.7% | COc1c([C@@H]2C[C@](C)(C(F)(F)F)S[C@H]2C(=O)Nc2ccc3c(c2)B(O)OC3)ccc(F)c1F [Compound 31-A, (2R,3S,5R)-3-(3,4-difluoro-2-methoxyphenyl)-N-(1-hydroxy-1,3-dihydrobenzo[c][1,2]oxaborol-6-yl)-5-methyl-5-(trifluoromethyl)tetrahydrothiophene-2-carboxamide]
79.8% | COc1c(C2CC(C)(C(F)(F)F)SC2C(=O)Nc2csc(B(O)O)c2)ccc(F)c1F (stereo not drawn) [Compound 48, (4-(3-(3,4-difluoro-2-methoxyphenyl)-5-methyl-5-(trifluoromethyl)tetrahydrothiophene-2-carboxamido)thiophen-2-yl)boronic acid]
91.5% | COc1c([C@@H]2C[C@](C)(C(F)(F)F)S[C@H]2C(=O)Nc2csc(B(O)O)c2)ccc(F)c1F [Compound 48-A, (4-((2R,3S,5R)-3-(3,4-difluoro-2-methoxyphenyl)-5-methyl-5-(trifluoromethyl)tetrahydrothiophene-2-carboxamido)thiophen-2-yl)boronic acid]
80.9% | [2H][C@@]1(C(=O)Nc2csc(B(O)O)c2)S[C@@](C)(C(F)(F)F)C[C@H]1c1ccc(F)c(F)c1OC [Compound 50-A, (4-((2R,3S,5R)-3-(3,4-difluoro-2-methoxyphenyl)-5-methyl-5-(trifluoromethyl)tetrahydrothiophene-2-carboxamido-2-d)thiophen-2-yl)boronic acid]
81.1% | COc1c(C2CC(C)(C(F)(F)F)SC2C(=O)Nc2ccc(B(O)O)cc2)ccc(F)c1F (stereo not drawn) [Compound 82, (4-(3-(3,4-difluoro-2-methoxyphenyl)-5-methyl-5-(trifluoromethyl)tetrahydrothiophene-2-carboxamido)phenyl)boronic acid]
95.6% | COc1c(C2CC(C)(C(F)(F)F)SC2C(=O)Nc2ccc(B(O)O)c(F)c2)ccc(F)c1F (stereo not drawn) [Compound 88, (4-(3-(3,4-difluoro-2-methoxyphenyl)-5-methyl-5-(trifluoromethyl)tetrahydrothiophene-2-carboxamido)-2-fluorophenyl)boronic acid]
92.7% | COc1c([C@@H]2C[C@](C)(C(F)(F)F)S[C@H]2C(=O)Nc2ccc(B(O)O)c(F)c2)ccc(F)c1F [Compound 88-A, (4-((2R,3S,5R)-3-(3,4-difluoro-2-methoxyphenyl)-5-methyl-5-(trifluoromethyl)tetrahydrothiophene-2-carboxamido)-2-fluorophenyl)boronic acid]
89.7% | COc1c(C2CC(C)(C(F)(F)F)SC2C(=O)Nc2ccc(B(O)O)c(Br)c2)ccc(F)c1F (stereo not drawn) [Compound 93, (2-bromo-4-(3-(3,4-difluoro-2-methoxyphenyl)-5-methyl-5-(trifluoromethyl)tetrahydrothiophene-2-carboxamido)phenyl)boronic acid]
77.9% | COC(=O)c1cc(NC(=O)[C@@H]2S[C@@](C)(C(F)(F)F)C[C@H]2c2ccc(F)c(F)c2OC)ccc1B(O)O [Compound 101-A, (4-((2R,3S,5R)-3-(3,4-difluoro-2-methoxyphenyl)-5-methyl-5-(trifluoromethyl)tetrahydrothiophene-2-carboxamido)-2-(methoxycarbonyl)phenyl)boronic acid]
76.5% | COc1c(C2CC(C)(C)SC2C(=O)Nc2ccnc(C(N)=O)c2)ccc(F)c1F (stereo not drawn) [Compound 134, 4-(3-(3,4-difluoro-2-methoxyphenyl)-5,5-dimethyltetrahydrothiophene-2-carboxamido)picolinamide]
96.2% | [2H][C@@]1(C(=O)Nc2ccnc(C(N)=O)c2)S[C@@](C)(C(F)(F)F)C[C@H]1c1ccc(F)c(F)c1OC [Compound 140-A, 4-((2R,3S,5R)-3-(3,4-difluoro-2-methoxyphenyl)-5-methyl-5-(trifluoromethyl)tetrahydrothiophene-2-carboxamido-2-d)picolinamide]
98.3% | COc1c([C@@H]2C[C@](C)(C(F)(F)F)S[C@H]2C(=O)Nc2ccc(F)c(C(N)=O)c2)ccc(F)c1F [Compound 146-A, (2R,3S,5R)-N-(3-carbamoyl-4-fluorophenyl)-3-(3,4-difluoro-2-methoxyphenyl)-5-methyl-5-(trifluoromethyl)tetrahydrothiophene-2-carboxamide]
97.9% | COc1c(C2CC(C)(C(F)(F)F)SC2C(=O)Nc2cc[nH]c(=O)c2)ccc(F)c1F (stereo not drawn) [Compound 170, 3-(3,4-difluoro-2-methoxyphenyl)-5-methyl-N-(2-oxo-1,2-dihydropyridin-4-yl)-5-(trifluoromethyl)tetrahydrothiophene-2-carboxamide]
86.5% | COc1c(C2CC(C)(C(F)(F)F)SC2C(=O)Nc2ccn(C)c(=O)c2)ccc(F)c1F (stereo not drawn) [Compound 172, 3-(3,4-difluoro-2-methoxyphenyl)-5-methyl-N-(1-methyl-2-oxo-1,2-dihydropyridin-4-yl)-5-(trifluoromethyl)tetrahydrothiophene-2-carboxamide]
86% | COc1c(C2CC(C)(C(F)(F)F)SC2C(=O)Nc2ccc(=O)n(C)c2)ccc(F)c1F (stereo not drawn) [Compound 178, 3-(3,4-difluoro-2-methoxyphenyl)-5-methyl-N-(1-methyl-6-oxo-1,6-dihydropyridin-3-yl)-5-(trifluoromethyl)tetrahydrothiophene-2-carboxamide]
90.2% | COc1c([C@@H]2C[C@](C)(C(F)(F)F)S[C@H]2C(=O)Nc2ccc(=O)n(C)c2)ccc(F)c1F [Compound 178-A, (2R,3S,5R)-3-(3,4-difluoro-2-methoxyphenyl)-5-methyl-N-(1-methyl-6-oxo-1,6-dihydropyridin-3-yl)-5-(trifluoromethyl)tetrahydrothiophene-2-carboxamide]
